Measurements reported in PubChem BioAssay AID1963844 (Molecular Pharmacology Branch, DTP, NCI, 2024).
“And” between values parts separate entries of the source, which are not always exact repeats. Identical values can stand only once.

Test system: 422866-222-R5-J1-PDC complex spheroid viability
Experiment: Anticancer human tumor 422866-222-R5-J1-PDC patient-derived pancreatic adenocarcinoma cell line growth inhibition [POLQ]
Conditions: for viability, T/C: stronger effect = lower value
Description: Multicellular complex tumor spheroid response to Polymerase (POL) inhibitors (novobiocin, ART-558, RP6685) in combination with a variety of drugs and investigational agents in selected tumor cell lines
The POL inhibitors (novobiocin, ART-558, and RP6685) were evaluated both individually and in combination with standard of care and investigational anticancer small molecules within a complex spheroid model of solid tumors. . Complex spheroids include a stromal component modeled by human endothelial cells (HUVEC) and fibroblasts modeled by human mesenchymal stem cells (MSCs). The concentration ranges selected for each drug and investigational agent were based upon clinically achievable concentrations if the clinical Cmax of the agent was known.
Compounds. The drugs and investigational agents: novobiocin (NSC847541), ART-558 (NSC835418), RP-6685 (NSC848927), peposertib (NSC802822), ceralasertib (NSC780249), elimusertib (NSC800525), camonsertib (NSC841442), AZD-1390 (NSC803789), olaparib (NSC753686), talazoparib (NSC767125), rucaparib (NSC756644), sotorasib (NSC818433), MRTX-1133 (NSC836407), SN-38 (NSC673596), topotecan (NSC609699), epotoside (NSC141540), doxorubicin (NSC123127), gemcitabine (NSC613327), 5-fluorouracil (NSC19893), paclitaxel (NSC125973), vemurafenib (NSC761431), MSA-2 (NSC828583), SN-011 (NSC837082), adavosertib (NSC754352), prexasertib (NSC758257), carboplatin (NSC241240) and oxaliplatin (NSC266046), were obtained from the National Cancer Institute (NCI) Developmental Therapeutics Program Chemical Repository (21). The FDA-approved anticancer drug set is available from the Developmental Therapeutics Program at https://dtp.cancer.gov/organization/dscb/obtaining/. […] The stock solutions were prepared in dimethyl sulfoxide (DMSO, Sigma-Aldrich, St. Louis, MO, cat. D2650), except for the platinum compounds which were prepared in saline (Quality Biological, Gaithersburg, MD, cat. 114-055-101), at 800-fold the tested concentration and stored at -70 degrees C prior to their use. All drugs and investigational agents were tested over a range starting from a high concentration at or near the clinical Cmax and decreasing in half-log increments. If the clinical Cmax for an agent had not been determined, the highest concentration tested was 10 microM, except for SN-38, which was tested at a high concentration of 1 microM.
Cell Culture. All cells were maintained in an incubator at 37 degrees C and 5% CO2 with 95% humidity. The PDC lines were cultured according to standard operating procedures established by the NCI PDMR (https://pdmr.cancer.gov). Table 3 of the manuscript, lists the cell lines along with the number of the three cell types plated to form the mct-spheroids and media for tumor cell growth. After thawing, all PDC lines, except 997537-175-T-J1-PDC and 415267-285-R-J2-PDC, were cultured in Matrigel-coated flasks prepared with a working solution of 1X Ham's F-12 nutrient mix, without supplementation (Thermo Fisher Scientific, cat. 11765054), 100 U/mL penicillin-streptomycin (Thermo Fisher Scientific, cat. 15140122), and 2.5% Matrigel (Corning Inc., Corning, NY, cat. 354248) for the first three passages. The two PDC lines 997537-175-T-J1-PDC and 415267-285-R-J2-PDC were cultured on uncoated flasks. The 857933-349-R-J2-PDC line was cultured in 6C/Colon 1B media containing advanced DMEM/F-12 (Thermo Fisher Scientific, cat. 12634028), 10 mM HEPES (Thermo Fisher Scientific, cat. 15630080), 1X GlutaMAX supplement (Thermo Fisher Scientific, cat. 35050061), 0.1 mg/mL primocin (InvivoGen, San Diego, CA, cat. ant-pm-2), 10% defined fetal bovine serum, heat inactivated (HyClone Laboratories Inc., Logan, UT, cat. SH30070.03HI), 50% L-WRN conditioned media (ATCC, cat. CRL-3276), 1.25 mM N-Acetyl-L-cysteine (Sigma-Aldrich, cat. A9165), 10 mM nicotinamide (Sigma-Aldrich, cat. N0636), 1X B-27 supplement (Thermo Fisher Scientific, cat. 17504044), 1X N-2 supplement (Thermo Fisher Scientific, cat. […]

[1] = curve of first compound, second compound 0.0316 µM
[2] = curve of first compound, second compound 0.1 µM
[3] = curve of first compound, second compound 0.316 µM
[4] = curve of first compound, second compound 1 µM
[5] = curve of first compound, second compound 3.16 µM
[6] = curve of first compound, second compound 10 µM
[7] = second compound 0.0316 µM, first compound 0.0316 µM
[8] = second compound 0.0316 µM, first compound 0.1 µM
[9] = second compound 0.0316 µM, first compound 0.316 µM
[10] = second compound 0.0316 µM, first compound 1 µM
[11] = second compound 0.0316 µM, first compound 3.16 µM
[12] = second compound 0.0316 µM, first compound 10 µM
[13] = second compound 0.1 µM, first compound 0.0316 µM
[14] = second compound 0.1 µM, first compound 0.1 µM
[15] = second compound 0.1 µM, first compound 0.316 µM
[16] = second compound 0.1 µM, first compound 1 µM
[17] = second compound 0.1 µM, first compound 3.16 µM
[18] = second compound 0.1 µM, first compound 10 µM
[19] = second compound 0.316 µM, first compound 0.0316 µM
[20] = second compound 0.316 µM, first compound 0.1 µM
[21] = second compound 0.316 µM, first compound 0.316 µM
[22] = second compound 0.316 µM, first compound 1 µM
[23] = second compound 0.316 µM, first compound 3.16 µM
[24] = second compound 0.316 µM, first compound 10 µM
[25] = second compound 1 µM, first compound 0.0316 µM
[26] = second compound 1 µM, first compound 0.1 µM
[27] = second compound 1 µM, first compound 0.316 µM
[28] = second compound 1 µM, first compound 1 µM
[29] = second compound 1 µM, first compound 3.16 µM
[30] = second compound 1 µM, first compound 10 µM
[31] = second compound 3.16 µM, first compound 0.0316 µM
[32] = second compound 3.16 µM, first compound 0.1 µM
[33] = second compound 3.16 µM, first compound 0.316 µM
[34] = second compound 3.16 µM, first compound 1 µM
[35] = second compound 3.16 µM, first compound 3.16 µM
[36] = second compound 3.16 µM, first compound 10 µM
[37] = second compound 10 µM, first compound 0.0316 µM
[38] = second compound 10 µM, first compound 0.1 µM
[39] = second compound 10 µM, first compound 0.316 µM
[40] = second compound 10 µM, first compound 1 µM
[41] = second compound 10 µM, first compound 3.16 µM
[42] = second compound 10 µM, first compound 10 µM
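Also: spheroids exposed to compounds for one week before readout.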
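For viability, T/C in this document: percent of DMSO vehicle wells luminescence so 100% = untreated viability.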

O=C(c1cc(Cc2n[nH]c(=O)c3ccccc23)ccc1F)N1CCN(C(=O)C2CC2)CC1 + Nc1ccc(C#CCN(C(=O)Cc2ncc(C(F)(F)F)cc2C(F)(F)F)c2ccc(F)cc2)nn1
IC50 [1]: > 10 µM | IC50 [2]: > 10 µM | IC50 [3]: > 10 µM | IC50 [4]: > 10 µM | IC50 [5]: > 10 µM | IC50 [6]: > 10 µM | viability, T/C [7]: 86.6% | viability, T/C [8]: 109% | viability, T/C [9]: 88.2% | viability, T/C [10]: 97.9% | viability, T/C [11]: 72.8% | viability, T/C [12]: 73.6% | viability, T/C [13]: 91.7% | viability, T/C [14]: 95.8% | viability, T/C [15]: 97.5% | viability, T/C [16]: 93.8% | viability, T/C [17]: 80.2% | viability, T/C [18]: 61.4% | viability, T/C [19]: 101% | viability, T/C [20]: 103% | viability, T/C [21]: 99.1% | viability, T/C [22]: 102% | viability, T/C [23]: 76.2% | viability, T/C [24]: 65.8% | viability, T/C [25]: 105% | viability, T/C [26]: 90.1% | viability, T/C [27]: 105% | viability, T/C [28]: 84.5% | viability, T/C [29]: 70.2% | viability, T/C [30]: 53.7% | viability, T/C [31]: 112% | viability, T/C [32]: 109% | viability, T/C [33]: 111% | viability, T/C [34]: 90.3% | viability, T/C [35]: 84.2% | viability, T/C [36]: 65.9% | viability, T/C [37]: 96.8% | viability, T/C [38]: 104% | viability, T/C [39]: 131% | viability, T/C [40]: 115% | viability, T/C [41]: 91.9% | viability, T/C [42]: 68.6%

C#Cc1c(F)ccc2cc(O)cc(-c3ncc4c(N5CC6CCC(C5)N6)nc(OCC56CCCN5CC(F)C6)nc4c3F)c12 (configuration not stated)
viability, T/C (compound 0.0316 µM): 93% and 91.1% and 102% | viability, T/C (compound 0.1 µM): 80.5% and 89.6% and 83.2% | viability, T/C (compound 0.316 µM): 60.1% and 59.7% and 68.7% | viability, T/C (compound 1 µM): 44% and 50.6% and 51.8% | viability, T/C (compound 3.16 µM): 33.9% and 34.4% and 34.3% | viability, T/C (compound 10 µM): 26.9% and 24.2% and 26% | IC50 (curve of compound): 0.666 µM and 0.869 µM and 1.06 µM

CNCc1ccc(-c2[nH]c3cc(F)cc4c3c2CCNC4=O)cc1
viability, T/C (compound 0.0316 µM): 88% and 95% and 99.8% | viability, T/C (compound 0.1 µM): 89.3% and 83.7% and 99.7% | viability, T/C (compound 1 µM): 90.7% and 102% and 101% | viability, T/C (compound 3.16 µM): 77.7% and 90.4% and 86.5% | viability, T/C (compound 10 µM): 94.5% and 76.6% and 86.3% | IC50 (curve of compound): > 10 µM

CCCS(=O)(=O)Nc1ccc(F)c(C(=O)c2c[nH]c3ncc(-c4ccc(Cl)cc4)cc23)c1F + Cc1cccc(N(C)C(=O)C2C(O)CCN2c2nc(C)cc(C(F)(F)F)c2C#N)c1
IC50 [1]: > 10 µM | IC50 [2]: > 10 µM | IC50 [3]: > 10 µM | IC50 [4]: > 10 µM | IC50 [5]: > 10 µM | IC50 [6]: > 10 µM | viability, T/C [7]: 92.3% | viability, T/C [8]: 115% | viability, T/C [9]: 122% | viability, T/C [10]: 156% | viability, T/C [11]: 214% | viability, T/C [12]: 102% | viability, T/C [13]: 93% | viability, T/C [14]: 99.1% | viability, T/C [15]: 111% | viability, T/C [16]: 138% | viability, T/C [17]: 200% | viability, T/C [18]: 102% | viability, T/C [19]: 92.6% | viability, T/C [20]: 105% | viability, T/C [21]: 135% | viability, T/C [22]: 164% | viability, T/C [23]: 143% | viability, T/C [24]: 94.9% | viability, T/C [25]: 98.5% | viability, T/C [26]: 104% | viability, T/C [27]: 124% | viability, T/C [28]: 145% | viability, T/C [29]: 192% | viability, T/C [30]: 94.8% | viability, T/C [31]: 99.4% | viability, T/C [32]: 105% | viability, T/C [33]: 138% | viability, T/C [34]: 163% | viability, T/C [35]: 205% | viability, T/C [36]: 107% | viability, T/C [37]: 84.4% | viability, T/C [38]: 97% | viability, T/C [39]: 124% | viability, T/C [40]: 149% | viability, T/C [41]: 188% | viability, T/C [42]: 79.2%
